Experimental data reported in paper PMC7796031, “Studies of Coumarin Derivatives for Constitutive Androstane Receptor (CAR) Activation” (Molecules, 2020).

Columns and labels:
[1] = target: T1, Constitutive androstane receptor (CAR) (Homo sapiens, UniProt Q14994); test: In vitro CAR activation screening assay (UGT1A1 promoter gtPBREM-pGL4 luciferase reporter in Hep3B-gtPBREM cells); format: cell-based
T1 construct: The pGL4-gtPBREM plasmid was transfected into Hep3B cells; endogenous in cells
T1 sequence (Q14994 1-352): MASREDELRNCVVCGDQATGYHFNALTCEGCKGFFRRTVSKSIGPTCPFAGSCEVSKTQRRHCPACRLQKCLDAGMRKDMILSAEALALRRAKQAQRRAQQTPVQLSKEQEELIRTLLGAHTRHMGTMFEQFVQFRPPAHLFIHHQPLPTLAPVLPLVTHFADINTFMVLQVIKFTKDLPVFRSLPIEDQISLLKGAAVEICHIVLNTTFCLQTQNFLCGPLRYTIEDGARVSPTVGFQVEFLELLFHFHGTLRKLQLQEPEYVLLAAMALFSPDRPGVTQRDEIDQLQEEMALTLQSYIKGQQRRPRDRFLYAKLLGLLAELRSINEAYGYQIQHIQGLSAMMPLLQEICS
Text: Until now, there is no commercially available high throughput screening method for CAR activation. Traditionally, CAR activation can be detected in western blots by its downstream signals such as UGT1A1, MRP2 or CYP2B6. […] However, this method was slow and pricy. In order to rapidly screen all the compounds for CAR activation at less cost, an in vitro CAR activation screening assay was developed: DNA was extracted from Hep3B cells and UGT1A1 promoter was obtained using PCR amplification. Ligation between UGT1A1 promoter and pGL4 vector was performed and the plasmid was amplified via E. coli replication. The desired plasmid was extracted from E. coli and transfected into Hep3B. The desired colony bearing UGT1A1 promoter-pGL4 plasmid was selected by neomycin. CAR activation was measured by adding tested compounds to Hep3B for several hours and luminescence was measured. Higher activation will get higher luminescence readout. This assay system was validated with two different CAR agonists: CITCO (direct agonist) and scoparone (an indirect agonist). […] Different concentration of scoparone at 1, 5, 10 and 20 μM had been tested either for luciferase assay or downstream UGT1A1 and MRP2 expression (data not shown) and 10 μM was selected to be the best condition for the following work.
After successfully establishing the in vitro assay, all of the coumarin compounds were subjected to the screening (at 10 μM) and their SAR was discussed. Although the reporter system can successfully identify CAR-activating compounds under 8 h and display better efficiency and sensitivity compared with western blots, it only presented a medium luciferase response. According to previous studies, CITCO was reported to only moderately enhance human CAR (less than 2-fold), compared with the enhance provided by TCPOBOP for murine CAR (5- to 10-fold) in luciferase reporter assays. […] Another possibility for the medium response in our reporter system might be the contribution of the whole gtPBREM element which might include response-suppressive elements that was used and the single nucleotide variation of DR3 element which was reported to slightly reduce the original UGT1A1 activity.
The genomic DNA was isolated from Hep3B cells using Wizard® Genomic DNA Purification Kit (Promega, Fitchburg, WI, USA). The promoter region of UGT1A1 gene, gtPBREM element, was amplified by AccuPrime^TM Taq DNA Polymerase High Fidelity Kit (Invitrogen, MA, USA). The sequence of the amplified element was confirmed by DNA sequencing company and cloned into pGL4 luciferase reporter vector. The pGL4-gtPBREM plasmid was transfected into Hep3B cells. The stable pGL4-gtPBREM transfected Hep3B cells, Hep3B-gtPBREM cells, were established after G418 selection. The luciferase activity represented of CAR activation ability was measured using individual established clone. Further, CAR-shRNA was obtained from the Genomic Research Center and transfected into Hep3B-gtPBREM cells. The transient transfected shCAR-Hep3B-gtPBREM cells were used for further luciferase assays.
The Hep3B-gtPBREM cells and shCAR-Hep3B-gtPBREM cells (1.5 × 10^5 cells/well) were seeded into 12-well plates for overnight then pre-determined concentration compounds were added for desired time. After treatment, transfected cells were washed twice in PBS, lysated with 1× passive lysis buffer and luciferase intensity of equal amount of cell lysate was measured by a Synergy HT Multi-Mode Microplate Reader (BioTek, Winooski, VT, USA).

MRP2 = test: Protein expression of MRP2 (western blot); format: cell-based, human
Description: Figure 7 The protein expressions of MRP2 after 6,7-diprenoxycoumarin (50) treatment. Hep3B cell (1 × 10^6) were treated with 50 (5, 10, 20 and 40 μM) for 24 h. Treated cell lysates were prepared as described in the Methods section and the expression of MRP2 was analyzed by western blot.
1 × 10^6 cells were seeded in a 10 cm plate, incubated at 37 °C for overnight and treated with various concentrations of compounds for the indicated times. After incubation, the culture medium was removed and washed twice with 2 mL ice-cold 1× PBS. Three hundred μL of protein lysis buffer (150 mM NaCl, 50 mM Tris-HCl (pH 7.4), 1% SDS, 1% Triton X-100, 1 mM PMSF) was added into each plate, scraped with a rubber policeman, collected into a premarked microtube and the incubated in ice for 1 h, sonicated by Ultrasonic Cell Disruptor for three time at 5 s each. The cell lysated was cleared by centrifugation at 12,000× g for 15 min at 4 °C. Supernatants were transferred into a fresh marked microtube and stored at −20 °C for future use.
Protein concentration of each sample was determined using a BCA Protein Assay Kit (Pirece®, Thermo Scientific). Different percentages of SDS-PAGE gels were prepared according to the molecular size of proteins of interest. After complete polymerization of stacking gels, each sample with equal amount of total protein was separated in polyacrylamide gels (stacking gel: 50 v, 60 min; separating gel: 100 v, 60 min). After separating, wet-transfer method was utilized to transfer proteins onto the PVDF membrane. The gels were assembled in the transfer sandwich and put in a transfer tank filled with transfer buffer (25 mM glycine, 0.15% ethanolamine, 20% methanol). The electro-transfer was performed at the voltage of 100 volt for 80 min at 4 °C. After transfer, PVDF-membrane was blocked with 5% BSA in 1× TBS-Tween at room temperature for 1 h. Membrane was washed with 10 mL 1× TBS-Tween three times and incubated with primary antibodies overnight at 4 °C with gentle agitation. […] The emitted fluorescence from the membrane was caught on a LAS-4000 biomolecule imager (FUJI.).

| SMILES | luciferase activity ([1]; assay validation, positive control, indirect agonist) | protein expression of MRP2 (CAR downstream gene) (MRP2; Figure 2, after scoparone or CITCO treatment) | increased CAR activation fold ([1]; 10 μM, compared to scoparone) [%] | activation at 10 µM ([1]; Table 2, 10 μM, (luminescence of compound − luminescence of scoparone)/luminescence of scoparone × 100%, read-out: CAR Activation Fold) [%] | protein expression level of MRP2 (MRP2; Hep3B, 5, 10, 20 and 40 μM, 24 h) |
| --- | --- | --- | --- | --- | --- |
| COc1cc2ccc(=O)oc2cc1OC [Compound 39, scoparone] | enhance luciferase activity | upregulated | – | – | – |
| CC(C)=CCOc1cc2ccc(=O)oc2cc1OCC=C(C)C [Compound 50, 6,7-diprenoxycoumarin] | – | – | 50 | 50 | enhanced |
